# Test results from PMC4414177, “A novel orally active water-soluble inhibitor of human glutathione transferase exerts a potent and selective antitumor activity against human melanoma xenografts” (Oncotarget, 2015).
# What was measured:
# A375 cells = assay: Cell cycle analysis (PI, flow cytometry); assay type: cell-based, human; conditions: A375, 10 μM
# Procedure: (§1) A375 and SK23-MEL cells, were fixed with 70% ethanol overnight, stained with PI staining buffer ([…] and 1% Triton X-100) and analyzed by a FACSCalibur (BD Bioscence, San Jose, CA, USA). The percentage of early apoptotic, late apoptotic, and necrotic cells was determined by simultaneous staining of cells with PI (2 μg/ml) and Annexin V-FITC (0.5 μg/ml) (Sigma Aldrich), according to manufacturer's protocol. Flow cytometric data were analyzed by the FlowJo 8.8.6 software (Tree Stare, Inc, Ashland, OR, USA).
# SK23-MEL cells [1] = assay: Cell cycle analysis (PI, flow cytometry); assay type: cell-based, human; conditions: 7 μM
# Procedure: as §1
# GSTM2-2 = biological target: T1, GSTM2-2 (Homo sapiens, UniProt P28161); assay: Inhibition of GSTM2-2 conjugation activity; assay type: biochemical; conditions: GSTM2-2 5 nM
# T1 construct: made in house; host or cells: Escherichia coli
# T1 sequence (P28161 1-218): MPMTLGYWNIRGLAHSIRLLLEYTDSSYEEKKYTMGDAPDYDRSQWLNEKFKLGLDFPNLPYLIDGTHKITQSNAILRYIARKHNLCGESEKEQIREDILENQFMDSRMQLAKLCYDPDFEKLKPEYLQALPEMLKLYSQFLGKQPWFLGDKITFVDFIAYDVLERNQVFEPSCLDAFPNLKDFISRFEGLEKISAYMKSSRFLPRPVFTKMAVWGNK
# Procedure: Human GSTM2-2, GSTP1-1, JNK1a2 and TRAF2 were expressed in Escherichia coli and purified as previously described; protein concentration was determined using the Lowry colorimetric assay. Unless specified otherwise, all chemicals were purchased from Sigma-Aldrich S.r.l. (Milan, Italy).
# GST activity was determined spectrophotometrically at 340 nm (ε = 9,600 M^−1 cm^−1), as previously reported. Inhibition experiments were performed by measuring GSTP1-1 (20 nM) or GSTM2-2 (5 nM) activities in the presence of various amounts of the selected NBD derivative (from 0.1 to 20 μM with GSTP1-1, and from 0.005 and 1 μM with GSTM2-2). Fifty percent inhibitory concentration (IC50) values were calculated by fitting the data to Equation 1, where ν is the percentage of the saturated binding sites; [P]t is the total GST concentration and [L]t is the total inhibitor concentration, assuming a 1:1 interaction stoichiometry between the inhibitor and one GST subunit, as well as that the binding sites are equal and independent.
# SK23-MEL cells [2] = assay: Melanin content; assay type: cell-based, human; conditions: 7 μM, 48 hrs, p < 0.05
# Procedure: Cells (1×10^6) were lysed in 1M NaOH at 100°C, for 1 hour and then centrifuged at 15,000 g, for 20 minutes. […] Tyrosinase activity was examined by measuring spectrophotometrically at 475 nm the rate of L-DOPA oxidation to dopachrome over 1 hour at 37°C. Cells [1×10^6 in 40 μl of 20 mM potassium phosphate buffer (pH 6.8) containing 1% Triton X-100 and 1 mM PMSF] were disrupted by freezing and thawing and centrifuged at 15,000 g for 20 minutes at 4°C. The assay was started by addition of 100 μl of 2 mg/ml L-DOPA to 40 μl of supernatant. Tyrosinase activity was expressed as change in absorbance, per hour, per 10^6 cells.
# IST-MEL-1 = assay: Cell growth inhibition, SRB assay; assay type: cell-based; conditions: Homo sapiens, IST-MEL-1, 48 h
# Procedure: (§2) The IC50 values for each compound were then evaluated by the SRB assay.
# MALME-3M = assay: Cell growth inhibition, SRB assay; assay type: cell-based; conditions: Homo sapiens, 48 h
# Procedure: as §2
# A375 = assay: Cell growth inhibition, SRB assay; assay type: cell-based; conditions: Homo sapiens, A-375, A375, 48 h
# Procedure: as §2
# SK23-MEL = assay: Cell growth inhibition, SRB assay; assay type: cell-based; conditions: Homo sapiens, 48 h
# Procedure: as §2
# G-361 = assay: Cell growth inhibition, SRB assay; assay type: cell-based; conditions: Homo sapiens, G-361, 48 h
# Procedure: as §2
# A375 human melanoma = assay: A375 fragment xenograft model, antitumor efficacy; assay type: in vivo, mice; conditions: MC3181 i.v. 8mg/kg/d q1dx5 three weeks
# Procedure: With regard to the in vivo fragment tumor model, A375 cells were injected (1×10^7) subcutaneously (s.c.) into the right flank of an athymic Nude-Foxn1nu female mouse, and the established primary tumor was then removed and cut into fragments (2–3 mm diameter) and implanted s.c. into recipient mice. Animals were randomly divided in groups of 7 mice and treatment was initiated when a tumor volume of 0.12 ± 0.01 cm^3 (mean ± SEM) was reached.
# The reference drug temozolomide, dissolved in DMSO/PBS 1:1 to a final concentration of 10 mg/ml, was administered i.p. q1dx5 at a dose of 100mg/kg/day.
# Primary tumor growth was determined for all animals by caliper measurement (minor and major axis length), three times per week, until they were sacrificed. Primary tumor volume was determined using the following equation: V (cm^3)=(α^2×β)/2 (Eq. 3)
# The efficacy of the treatment was also analyzed by calculation of the percentage of Increase in Life Span (% ILS), since this analysis gives an evidence of clinical potency. Survival endpoint for each animal was fixed at the day when tumor volume reached 1.0 cm^3 (A375) or 0.4 cm^3 (SK23-MEL and G-361), and data were used to plot the relative Kaplan-Meier curves. Treatment efficacy was then evaluated by comparing the Median Survival Time (MST) of treated group with the MST of control group, and expressed as percentage of ILS: % ILS=[100×(MSTtreated group)/(MSTcontrol group)]−100 (Eq. 4)
# Treatment was considered effective when % ILS > 20%.
compound,measurement,setting,value
"O=[N+]([O-])c1ccc(SCCOCCOCCO)c2nonc12 [MC3181, 2-(2-(2-((7-nitrobenzo[c][1,2,5]oxadiazol-4-yl)thio)ethoxy)ethoxy)ethanol]",increase in the amount of cells in the sub-G1 phase,A375 cells; 24 hrs,about 27%
same,increase in the amount of cells in the sub-G1 phase,A375 cells; 48 hrs,~36%
same,increase in the number of cells in sub-G1 phase,SK23-MEL cells [1]; 24 hrs,about 10%
same,increase in the number of cells in sub-G1 phase,SK23-MEL cells [1]; 48 hrs,~20%
same,IC50,GSTM2-2,81 ± 13 nM
same,melanin content,SK23-MEL cells [2],significant increase
same,IC50,IST-MEL-1,920 ± 70 nM
same,IC50,MALME-3M,2420 ± 160 nM
same,IC50,A375,2310 ± 40 nM
same,IC50,SK23-MEL,1790 ± 50 nM
same,IC50,G-361,780 ± 40 nM
same,%ILS,A375 human melanoma; TMZ i.p. 100 mg/kg/d q1dx5,53%
same,tumor growth,"A375 human melanoma; TMZ i.p. 100 mg/kg/d q1dx5, from day 13 onward, P < 0.05",significantly delayed tumor growth
